Several values for one entry are separate records, joined by “and”; a condition that tells them apart may be missing. Identical values can stand only once.
How the values were obtained:
[1] = Ex vivo biodistribution in rats; parameters: species or system Sprague-Dawley rats; conditions: for Blood-brain barrier penetration: ex vivo rat biodistribution; for Biodistribution, blood / Biodistribution, bone / Biodistribution, brain (total brain uptake) / Biodistribution, fat / Biodistribution, heart / Biodistribution, kidney / Biodistribution, liver / Biodistribution, lung / Biodistribution, muscle / Biodistribution, pancreas / Biodistribution, spleen: male Sprague-Dawley rats, i.v. tail vein, n = 4; for Distribution of radioactivity in brain regions: rat brain regions, Figure 2
Procedure: All animal experiments were conducted in compliance with the Guidelines for the Care and Use of Research Animals under protocols approved by Washington University's Animal Studies Committee. […] Group of rats (n = 4) were used for each time point. […] The whole brain was quickly removed and dissected into segments consisting of brain stem, thalamus, striatum, hippocampus, cortex and cerebellum. The remainder of the brain was also collected to determine total brain uptake. […] Tissues were weighed, and the percent injected dose (%ID)/gram for each tissue was calculated.

[2] = MicroPET brain imaging in cynomolgus macaque; type: in vivo
Procedure: Before each scan (n = 2), the animal was fasted for 12 h and then initially anesthetized with ketamine (10 mg/kg) and glycopyrrolate (0.13 mg/kg) intramuscularly. Upon arrival at the scanner, the monkey was intubated, and a percutaneous catheter placed for tracer injection. The head was positioned supine in the adjustable head holder with the brain in the center of the field of view. Anesthesia was maintained at 0.75%–2.0% isoflurane/oxygen and the core temperature maintained at 37 °C. A 10-min transmission scan was performed to confirm positioning; this was followed by a 45-min transmission scan for attenuation correction.

[3] = healthy cynomolgus macaque, microPET

O=[N+]([O-])c1ccc2c(c1)Sc1cc(OCC[18F])ccc1N2 [[^18F]2b]
Blood-brain barrier penetration [1]: crossed the blood-brain barrier (BBB) | Biodistribution, blood ([1]; 5 min post injection): 0.553 ± 0.047 %ID/gram | Biodistribution, bone ([1]; 5 min post injection): 0.340 ± 0.027 %ID/gram | Biodistribution, brain (total brain uptake) ([1]; 5 min post injection): 0.758 ± 0.013 %ID/gram | Biodistribution, fat ([1]; 5 min post injection): 0.255 ± 0.037 %ID/gram | Biodistribution, heart ([1]; 5 min post injection): 0.757 ± 0.033 %ID/gram | Biodistribution, kidney ([1]; 5 min post injection): 1.070 ± 0.058 %ID/gram | Biodistribution, liver ([1]; 5 min post injection): 1.626 ± 0.221 %ID/gram | Biodistribution, lung ([1]; 5 min post injection): 0.833 ± 0.053 %ID/gram | Biodistribution, muscle ([1]; 5 min post injection): 0.430 ± 0.031 %ID/gram | Biodistribution, pancreas ([1]; 5 min post injection): 1.004 ± 0.147 %ID/gram | Biodistribution, spleen ([1]; 5 min post injection): 0.672 ± 0.064 %ID/gram | Biodistribution, blood ([1]; 30 min post injection): 0.589 ± 0.016 %ID/gram | Biodistribution, bone ([1]; 30 min post injection): 0.309 ± 0.020 %ID/gram | Biodistribution, brain (total brain uptake) ([1]; 30 min post injection): 0.465 ± 0.018 %ID/gram | Biodistribution, fat ([1]; 30 min post injection): 0.425 ± 0.023 %ID/gram | Biodistribution, heart ([1]; 30 min post injection): 0.505 ± 0.015 %ID/gram | Biodistribution, kidney ([1]; 30 min post injection): 0.988 ± 0.090 %ID/gram | Biodistribution, liver ([1]; 30 min post injection): 0.847 ± 0.027 %ID/gram | Biodistribution, lung ([1]; 30 min post injection): 0.561 ± 0.021 %ID/gram | Biodistribution, muscle ([1]; 30 min post injection): 0.451 ± 0.018 %ID/gram | Biodistribution, pancreas ([1]; 30 min post injection): 0.546 ± 0.068 %ID/gram | Biodistribution, spleen ([1]; 30 min post injection): 0.509 ± 0.022 %ID/gram | Biodistribution, blood ([1]; 60 min post injection): 0.606 ± 0.035 %ID/gram | Biodistribution, bone ([1]; 60 min post injection): 0.407 ± 0.043 %ID/gram | Biodistribution, brain (total brain uptake) ([1]; 60 min post injection): 0.410 ± 0.030 %ID/gram | Biodistribution, fat ([1]; 60 min post injection): 0.371 ± 0.067 %ID/gram | Biodistribution, heart ([1]; 60 min post injection): 0.466 ± 0.040 %ID/gram | Biodistribution, kidney ([1]; 60 min post injection): 0.678 ± 0.032 %ID/gram | Biodistribution, liver ([1]; 60 min post injection): 0.561 ± 0.028 %ID/gram | Biodistribution, lung ([1]; 60 min post injection): 0.491 ± 0.030 %ID/gram | Biodistribution, muscle ([1]; 60 min post injection): 0.376 ± 0.019 %ID/gram | Biodistribution, pancreas ([1]; 60 min post injection): 0.409 ± 0.029 %ID/gram | Biodistribution, spleen ([1]; 60 min post injection): 0.446 ± 0.038 %ID/gram | Biodistribution, blood ([1]; 120 min post injection): 0.585 ± 0.046 %ID/gram | Biodistribution, bone ([1]; 120 min post injection): 0.644 ± 0.071 %ID/gram | Biodistribution, brain (total brain uptake) ([1]; 120 min post injection): 0.359 ± 0.016 %ID/gram | Biodistribution, fat ([1]; 120 min post injection): 0.293 ± 0.048 %ID/gram | Biodistribution, heart ([1]; 120 min post injection): 0.410 ± 0.030 %ID/gram | Biodistribution, kidney ([1]; 120 min post injection): 0.659 ± 0.027 %ID/gram | Biodistribution, liver ([1]; 120 min post injection): 0.467 ± 0.023 %ID/gram | Biodistribution, lung ([1]; 120 min post injection): 0.436 ± 0.018 %ID/gram | Biodistribution, muscle ([1]; 120 min post injection): 0.315 ± 0.015 %ID/gram | Biodistribution, pancreas ([1]; 120 min post injection): 0.330 ± 0.021 %ID/gram | Biodistribution, spleen ([1]; 120 min post injection): 0.398 ± 0.019 %ID/gram | Distribution of radioactivity in brain regions [1]: homogeneous distribution in the brain regions | In vivo defluorination (bone uptake) ([1]; rats, bone uptake up to 120 min): no defluorination was observed

[11CH3]Oc1ccc2c(c1)Sc1cc([N+](=O)[O-])ccc1N2 [[^11C]2a]
Blood-brain barrier penetration [1]: crossed the blood-brain barrier (BBB) | Biodistribution, blood ([1]; 5 min post injection): 0.506 ± 0.040 %ID/gram | Biodistribution, brain (total brain uptake) ([1]; 5 min post injection): 0.953 ± 0.115 %ID/gram | Biodistribution, fat ([1]; 5 min post injection): 0.155 ± 0.023 %ID/gram | Biodistribution, heart ([1]; 5 min post injection): 0.758 ± 0.052 %ID/gram | Biodistribution, kidney ([1]; 5 min post injection): 1.362 ± 0.054 %ID/gram | Biodistribution, liver ([1]; 5 min post injection): 2.198 ± 0.111 %ID/gram | Biodistribution, lung ([1]; 5 min post injection): 1.149 ± 0.058 %ID/gram | Biodistribution, muscle ([1]; 5 min post injection): 0.271 ± 0.005 %ID/gram | Biodistribution, pancreas ([1]; 5 min post injection): 1.007 ± 0.262 %ID/gram | Biodistribution, spleen ([1]; 5 min post injection): 0.659 ± 0.049 %ID/gram | Biodistribution, blood ([1]; 30 min post injection): 0.369 ± 0.031 %ID/gram | Biodistribution, brain (total brain uptake) ([1]; 30 min post injection): 0.287 ± 0.046 %ID/gram | Biodistribution, fat ([1]; 30 min post injection): 0.241 ± 0.042 %ID/gram | Biodistribution, heart ([1]; 30 min post injection): 0.377 ± 0.046 %ID/gram | Biodistribution, kidney ([1]; 30 min post injection): 0.807 ± 0.086 %ID/gram | Biodistribution, liver ([1]; 30 min post injection): 1.349 ± 0.116 %ID/gram | Biodistribution, lung ([1]; 30 min post injection): 0.740 ± 0.038 %ID/gram | Biodistribution, muscle ([1]; 30 min post injection): 0.325 ± 0.030 %ID/gram | Biodistribution, pancreas ([1]; 30 min post injection): 0.506 ± 0.066 %ID/gram | Biodistribution, spleen ([1]; 30 min post injection): 0.400 ± 0.052 %ID/gram | Biodistribution, blood ([1]; 60 min post injection): 0.300 ± 0.015 %ID/gram | Biodistribution, brain (total brain uptake) ([1]; 60 min post injection): 0.158 ± 0.014 %ID/gram and 0.158 ± 0.013 %ID/gram | Biodistribution, fat ([1]; 60 min post injection): 0.293 ± 0.076 %ID/gram | Biodistribution, heart ([1]; 60 min post injection): 0.245 ± 0.010 %ID/gram | Biodistribution, kidney ([1]; 60 min post injection): 0.559 ± 0.053 %ID/gram | Biodistribution, liver ([1]; 60 min post injection): 1.116 ± 0.024 %ID/gram | Biodistribution, lung ([1]; 60 min post injection): 0.485 ± 0.036 %ID/gram | Biodistribution, muscle ([1]; 60 min post injection): 0.199 ± 0.016 %ID/gram | Biodistribution, pancreas ([1]; 60 min post injection): 0.522 ± 0.036 %ID/gram | Biodistribution, spleen ([1]; 60 min post injection): 0.386 ± 0.027 %ID/gram | Distribution of radioactivity in brain regions [1]: homogeneous distribution in the brain regions | Time of peak brain uptake post-injection (time-activity curve) ([2]; healthy adult male cynomolgus macaque, i.v., microPET): 3 min | Blood-brain barrier penetration [2, 3]: able to cross the BBB | Brain washout kinetics [2, 3]: fast washout kinetics from the brain regions | Distribution of radioactivity in the brain ([2]; healthy cynomolgus macaque, summed image 0-120 min): homogeneous distribution of radioactivity in the brain
